Data published in US10653688B2, “6-(6-membered heteroaryl and aryl)isoquinolin-3-yl carboxamides and preparation and use thereof” (Samumed, LLC, priority 2017, dated 2020).

Columns and labels:
[1] = system: SW480 colon carcinoma cells; test: Cell viability assay (CellTiter-Glo); type: cell-based, human; conditions: Homo sapiens; for EC50: 96 h, four days, CellTiter-Glo; for inhibition at 10 µM: read-out: percent inhibition at 10 μM (given for EC50 >10 μM), 10 μM
[2] = system: IL-6 in human peripheral blood mononuclear cells (huPBMCs); test: IL-6 inhibition in LPS-stimulated human peripheral blood mononuclear cells (HTRF); type: cell-based; conditions: Homo sapiens, PBMC; for EC50: LPS 50 ng/mL, 22 hours, IL-6 HTRF; for inhibition at 10 µM: read-out: percent inhibition at 10 μM (given for EC50 >10 μM), LPS, IL-6, 10 μM
Procedure, shortened: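 Compound-treated huPBMCs (1×10e6 cells/mL, 1% FBS-RPMI) were stimulated after 2 h with LPS (50 ng/mL) for another 22 h at 37° C. An anti-IL-6 HTRF pair reported IL-6 as the 665/620 nm ratio; activity relative to DMSO, EC50 by 4-parameter Levenberg-Marquardt fitting, duplicates.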

[3] = system: pT212Tau in Dyrk1a- and MAPT-overexpressing HEK293T cells; test: Tau phosphorylation at Threonine 212 (pT212Tau) sandwich ELISA in double transfected cells; conditions: Homo sapiens, HEK-293T, read-out: Thr212 EC50 (μM)
Experimental: HEK293T cells (transfectable human embryonic kidney cells) were cultured in DMEM medium supplemented with 10% FBS and 1% penicillin/streptomycin.
HEK293T cells were transiently transfected to overexpress Dyrk1a and microtubule-associated protein Tau (MAPT) genes. Specifically, Dyrk1a and MAPT expression vectors were obtained from OriGene (10 μg of each, catalog numbers SC314641 and RC216166, respectively). […] HEK293T cells were seeded at 1.0×10^7 cells in 10 mL per T-75 flask. […] One T-75 flask was designated as a no-vector negative control for pT212Tau signal.
After 4-6 hours of incubation in transfection reagents, transiently double transfected HEK293T cells were dissociated by treatment with trypsin EDTA and seeded at 1.0×10^5 cells in 100 μL per well in 96-well plates. No-vector negative controls were seeded in separate 96-well plates to avoid the risk of the negative control cells picking up the overexpression during incubation.
96-well flat-bottom plates were coated with 100 μL per well anti-HT7 capture antibody (ThermoFisher, MN1000) diluted 1:300 in 1×PBS at 4° C. overnight, with shaking at 500 rpm.
Cells were then lysed with 100 μL 1×RIPA buffer supplemented with phosphatase and protease inhibitors (each diluted to a final 1×). […] V-bottom plates were centrifuged at 4000 rpm, 4° C., for 15 minutes, and 100 μL of lysate supernatant from each well was directly tested for pT212Tau signal by sandwich ELISA.

[4] = system: Tau phosphorylation at Ser396 (pSer396) in SH-SY5Y cells; test: Tau phosphorylation at Ser396 (pSer396) cell assay, ELISA/western blot; type: cell-based, human; conditions: Homo sapiens; SH-SY5Y cells, overnight (16-18 h); read-out: pSer396 Tau EC50

SMILES | EC50 [1] | inhibition at 10 µM [1] | EC50 [2] | inhibition at 10 µM [2] | EC50 [3] | EC50 [4]
O=C(CCN1CCOCC1)Nc1cc2cc(-c3cncc(F)c3)ccc2cn1 [Compound 23, N-(6-(5-Fluoropyridin-3-yl)isoquinolin-3-yl)-3-morpholinopropanamide] | > 10 µM | 24.8% | > 10 µM | 8.6% | > 10 µM | 8.5 µM
COc1cncc(-c2ccc3cnc(NC(=O)C4CCN(C)CC4)cc3c2)c1 [Compound 33, N-(6-(5-Methoxypyridin-3-yl)isoquinolin-3-yl)-1-methylpiperidine-4-carboxamide] | 1.82 µM | – | 3.65 µM | – | 0.033 µM | 1.45 µM
CN1CCC(C(=O)Nc2cc3cc(-c4cncc(N5CCCC5)c4)ccc3cn2)CC1 [Compound 50, 1-Methyl-N-(6-(5-(pyrrolidin-1-yl)pyridin-3-yl)isoquinolin-3-yl)piperidine-4-carboxamide] | 2.2 µM | – | 8.95 µM | – | 0.113 µM | > 10 µM
O=C(Nc1cc2cc(-c3cncc(CN4CCCC4)c3)ccc2cn1)C1CC1 [Compound 51, N-(6-(5-(Pyrrolidin-1-ylmethyl)pyridin-3-yl)isoquinolin-3-yl) cyclopropanecarboxamide] | 4.06 µM | – | 3 µM | – | 0.047 µM | 1.9 µM
O=C(Nc1cc2cc(-c3cncc(CN4CCC(O)CC4)c3)ccc2cn1)C1CC1 [Compound 53, N-(6-(5-((4-Hydroxypiperidin-1-yl)methyl)pyridin-3-yl)isoquinolin-3-yl) cyclopropanecarboxamide] | 2.35 µM | – | 3.25 µM | – | 0.003 µM | 0.705 µM
CN1CCN(Cc2cncc(-c3ccc4cnc(NC(=O)C5CC5)cc4c3)c2)CC1 [Compound 56, N-(6-(5-((4-Methylpiperazin-1-yl)methyl)pyridin-3-yl)isoquinolin-3-yl) cyclopropanecarboxamide] | 3.3 µM | – | 9.5 µM | – | 0.045 µM | 4.9 µM
O=C(Nc1cc2cc(-c3cncc(CN4CCOCC4)c3)ccc2cn1)C1CC1 [Compound 57, N-(6-(5-(Morpholinomethyl)pyridin-3-yl)isoquinolin-3-yl) cyclopropanecarboxamide] | 3.18 µM | – | 3.8 µM | – | 0.05 µM | 2 µM
[2H]c1nc([2H])c(-c2ccc3cnc(NC(=O)CN4CCCC4)cc3c2)c([2H])c1[2H] [Compound 60, N-(6-(pyridin-3-yl-d4)isoquinolin-3-yl)-2-(pyrrolidin-1-yl)acetamide] | 3.94 µM | – | 9.09 µM | – | 0.126 µM | 1.9 µM
[2H]c1nc([2H])c(-c2ccc3cnc(NC(=O)CN4CCN(C)CC4)cc3c2)c([2H])c1[2H] [Compound 61, 2-(4-Methylpiperazin-1-yl)-N-(6-(pyridin-3-yl-d4)isoquinolin-3-yl)acetamide] | > 10 µM | 21.6% | > 10 µM | 26.4% | 0.121 µM | 9.8 µM
[2H]c1nc([2H])c(-c2ccc3cnc(NC(=O)CN4CCOCC4)cc3c2)c([2H])c1[2H] [Compound 62, 2-Morpholino-N-(6-(pyridin-3-yl-d4)isoquinolin-3-yl)acetamide] | > 10 µM | 16.6% | > 10 µM | 8% | 0.086 µM | 4.8 µM
O=C(CN1CCOCC1)Nc1cc2cc(-c3ccnnc3)ccc2cn1 [Compound 67, 2-morpholino-N-(6-(pyridazin-4-yl)isoquinolin-3-yl)acetamide] | > 10 µM | 19.2% | > 10 µM | 6.3% | 0.206 µM | 1.1 µM
O=C(Nc1cc2cc(-c3cnccn3)ccc2cn1)[C@H]1C[C@H](N2CCOCC2)C1 [Compound 69, trans-3-Morpholino-N-(6-(pyrazin-2-yl)isoquinolin-3-yl)cyclobutane-1-carboxamide] | > 10 µM | 19.5% | > 10 µM | 4.4% | 0.227 µM | 2.9 µM
O=C(Nc1cc2cc(-c3cnccn3)ccc2cn1)[C@H]1CC[C@H](N2CCOCC2)CC1 [Compound 71, trans-4-Morpholino-N-(6-(pyrazin-2-yl)isoquinolin-3-yl)cyclohexane-1-carboxamide] | > 10 µM | 14.6% | > 10 µM | 11% | 0.019 µM | 3.3 µM
O=C(Nc1cc2cc(-c3cnccn3)ccc2cn1)[C@H]1CC[C@H](CN2CC(F)C2)CC1 [Compound 72, trans-4-((3-Fluoroazetidin-1-yl)methyl)-N-(6-(pyrazin-2-yl)isoquinolin-3-yl)cyclohexane-1-carboxamide] | > 10 µM | 35.6% | > 10 µM | 10% | 0.628 µM | 7.7 µM
CN1CCN(C[C@H]2CC[C@H](C(=O)Nc3cc4cc(-c5cnccn5)ccc4cn3)CC2)CC1 [Compound 73, trans-4-((4-Methylpiperazin-1-yl)methyl)-N-(6-(pyrazin-2-yl)isoquinolin-3-yl)cyclohexane-1-carboxamide] | > 10 µM | 50.7% | 0.32 µM | – | 0.024 µM | > 10 µM
CN1CCC(C(=O)Nc2cc3cc(-c4cnccn4)ccc3cn2)CC1 [Compound 75, 1-Methyl-N-(6-(pyrazin-2-yl)isoquinolin-3-yl)piperidine-4-carboxamide] | > 10 µM | 44.5% | > 10 µM | 27.5% | 0.089 µM | > 10 µM
O=C(Nc1cc2cc(-c3cnccn3)ccc2cn1)C1CCN(CCF)CC1 [Compound 77, 1-(2-Fluoroethyl)-N-(6-(pyrazin-2-yl)isoquinolin-3-yl)piperidine-4-carboxamide] | > 10 µM | 33.8% | > 10 µM | 9.6% | 0.062 µM | > 10 µM
CC(C)Nc1cncc(-c2ccc3cnc(NC(=O)C4CCN(C)CC4)cc3c2)n1 [Compound 88, N-(6-(6-(Isopropylamino)pyrazin-2-yl)isoquinolin-3-yl)-1-methylpiperidine-4-carboxamide] | 0.364 µM | – | 0.4 µM | – | < 0.003 µM | 0.129 µM
Cc1cncc(-c2ccc3cnc(NC(=O)CN4CCOCC4)cc3c2)c1 [Compound 146, N-(6-(5-Methylpyridin-3-yl)isoquinolin-3-yl)-2-morpholinoacetamide] | > 10 µM | 23.1% | > 10 µM | 0% | 0.054 µM | 7.8 µM
